In PubChem BioAssay (NCI):
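Protocol summary: plate cells (96-well), add compound at 5 concentrations, incubate 48 h, interpolate endpoints linearly. The concentration for 50% growth inhibition is given as GI50. At the TGI there is no net growth.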

Legend:
Assay in all cases: NCI-60 cell line screen, 48 h; in the data active = GI50 below about 0.43 µM; inactive = the rest
DU-145 prostate = test system: DU-145 prostate
HS 578T breast = test system: HS 578T breast
PC-3 prostate = test system: PC-3 prostate
MALME-3M melanoma = test system: MALME-3M melanoma
MOLT-4 leukemia = test system: MOLT-4 leukemia
KM12 colon = test system: KM12 colon
SW-620 colon = test system: SW-620 colon
NCI-H226 lung = test system: NCI-H226 lung
EKVX NSCLC = test system: EKVX NSCLC
HCT-15 colon = test system: HCT-15 colon
COLO 205 colon = test system: COLO 205 colon
T-47D breast = test system: T-47D breast
UO-31 renal = test system: UO-31 renal
NCI/ADR-RES ovarian = test system: NCI/ADR-RES ovarian
A549 NSCLC = test system: A549 NSCLC
M14 melanoma = test system: M14 melanoma
MCF7 breast = test system: MCF7 breast
NCI-H460 lung = test system: NCI-H460 lung
HCT-116 colon = test system: HCT-116 colon
K-562 leukemia = test system: K-562 leukemia
ACHN renal = test system: ACHN renal
A498 renal = test system: A498 renal
U251 CNS = test system: U251 CNS
SNB-19 CNS = test system: SNB-19 CNS
OVCAR-5 ovarian = test system: OVCAR-5 ovarian
HT29 colon = test system: HT29 colon
HOP-92 NSCLC = test system: HOP-92 NSCLC
SF-268 CNS = test system: SF-268 CNS
RXF 393 renal = test system: RXF 393 renal
OVCAR-3 ovarian = test system: OVCAR-3 ovarian
CAKI-1 renal = test system: CAKI-1 renal
SK-MEL-28 melanoma = test system: SK-MEL-28 melanoma
OVCAR-4 ovarian = test system: OVCAR-4 ovarian
SNB-75 CNS = test system: SNB-75 CNS
BT-549 breast = test system: BT-549 breast
NCI-H522 lung = test system: NCI-H522 lung
SN12C renal = test system: SN12C renal
SK-MEL-2 melanoma = test system: SK-MEL-2 melanoma
RPMI-8226 leukemia = test system: RPMI-8226 leukemia
NCI-H23 lung = test system: NCI-H23 lung
SK-MEL-5 melanoma = test system: SK-MEL-5 melanoma
HCC-2998 colon = test system: HCC-2998 colon
UACC-257 melanoma = test system: UACC-257 melanoma
OVCAR-8 ovarian = test system: OVCAR-8 ovarian
SF-295 CNS = test system: SF-295 CNS
786-0 renal = test system: 786-0 renal
TK-10 renal = test system: TK-10 renal
HL-60(TB) leukemia = test system: HL-60(TB) leukemia
LOX IMVI melanoma = test system: LOX IMVI melanoma
SK-OV-3 ovarian = test system: SK-OV-3 ovarian
UACC-62 melanoma = test system: UACC-62 melanoma
HOP-62 NSCLC = test system: HOP-62 NSCLC
CCRF-CEM leukemia = test system: CCRF-CEM leukemia
SF-539 CNS = test system: SF-539 CNS
MDA-MB-231 breast = test system: MDA-MB-231 breast
IGROV1 ovarian = test system: IGROV1 ovarian
MDA-MB-435 = test system: MDA-MB-435

NC(=Nc1ccc(N)cc1)C(N)=Nc1ccc(N)cc1
inactive: GI50 (DU-145 prostate) > 100 µM | GI50 (HS 578T breast) > 100 µM | GI50 (PC-3 prostate) 98.6 µM | GI50 (MALME-3M melanoma) 45.9 µM | GI50 (MOLT-4 leukemia) 55.5 µM | GI50 (KM12 colon) 61 µM | GI50 (SW-620 colon) 64.1 µM | GI50 (NCI-H226 lung) > 100 µM | GI50 (EKVX NSCLC) > 100 µM | GI50 (HCT-15 colon) 42.6 µM | GI50 (COLO 205 colon) 43.5 µM | GI50 (T-47D breast) > 100 µM | GI50 (UO-31 renal) 33.5 µM | GI50 (NCI/ADR-RES ovarian) > 100 µM | GI50 (A549 NSCLC) > 100 µM | GI50 (M14 melanoma) > 100 µM | GI50 (MCF7 breast) 82.8 µM | GI50 (NCI-H460 lung) > 100 µM | GI50 (HCT-116 colon) 92.5 µM | GI50 (K-562 leukemia) 81.8 µM | GI50 (ACHN renal) 37.5 µM | GI50 (A498 renal) 25.3 µM | GI50 (U251 CNS) > 100 µM | GI50 (SNB-19 CNS) > 100 µM | GI50 (OVCAR-5 ovarian) > 100 µM | GI50 (HT29 colon) 63.4 µM | GI50 (HOP-92 NSCLC) > 100 µM | GI50 (SF-268 CNS) > 100 µM | GI50 (RXF 393 renal) > 100 µM | GI50 (OVCAR-3 ovarian) 33.3 µM | GI50 (CAKI-1 renal) 52.6 µM | GI50 (SK-MEL-28 melanoma) > 100 µM | GI50 (OVCAR-4 ovarian) > 100 µM | GI50 (SNB-75 CNS) > 100 µM | GI50 (BT-549 breast) > 100 µM | GI50 (NCI-H522 lung) > 100 µM | GI50 (SN12C renal) > 100 µM | GI50 (SK-MEL-2 melanoma) > 100 µM | GI50 (RPMI-8226 leukemia) > 100 µM | GI50 (NCI-H23 lung) > 100 µM | GI50 (SK-MEL-5 melanoma) > 100 µM | GI50 (HCC-2998 colon) > 100 µM | GI50 (UACC-257 melanoma) > 100 µM | GI50 (OVCAR-8 ovarian) 69.1 µM | GI50 (SF-295 CNS) > 100 µM | GI50 (786-0 renal) > 100 µM | GI50 (TK-10 renal) > 100 µM | GI50 (HL-60(TB) leukemia) 57.1 µM | GI50 (LOX IMVI melanoma) > 100 µM | GI50 (SK-OV-3 ovarian) > 100 µM | GI50 (UACC-62 melanoma) > 100 µM | GI50 (HOP-62 NSCLC) > 100 µM | GI50 (CCRF-CEM leukemia) 45.7 µM | GI50 (SF-539 CNS) 73.7 µM | GI50 (MDA-MB-231 breast) 77.6 µM | GI50 (IGROV1 ovarian) 79.1 µM | GI50 (MDA-MB-435) > 100 µM
> 100 µM: TGI (DU-145 prostate) | TGI (HS 578T breast) | TGI (PC-3 prostate) | TGI (MALME-3M melanoma) | TGI (MOLT-4 leukemia) | TGI (KM12 colon) | TGI (SW-620 colon) | TGI (NCI-H226 lung) | TGI (EKVX NSCLC) | TGI (HCT-15 colon) | TGI (COLO 205 colon) | TGI (T-47D breast) | TGI (UO-31 renal) | TGI (NCI/ADR-RES ovarian) | TGI (A549 NSCLC) | TGI (M14 melanoma) | TGI (MCF7 breast) | TGI (NCI-H460 lung) | TGI (HCT-116 colon) | TGI (K-562 leukemia) | TGI (ACHN renal) | TGI (A498 renal) | TGI (U251 CNS) | TGI (SNB-19 CNS) | TGI (OVCAR-5 ovarian) | TGI (HT29 colon) | TGI (HOP-92 NSCLC) | TGI (SF-268 CNS) | TGI (RXF 393 renal) | TGI (OVCAR-3 ovarian) | TGI (CAKI-1 renal) | TGI (SK-MEL-28 melanoma) | TGI (OVCAR-4 ovarian) | TGI (SNB-75 CNS) | TGI (BT-549 breast) | TGI (NCI-H522 lung) | TGI (SN12C renal) | TGI (SK-MEL-2 melanoma) | TGI (RPMI-8226 leukemia) | TGI (NCI-H23 lung) | TGI (SK-MEL-5 melanoma) | TGI (HCC-2998 colon) | TGI (UACC-257 melanoma) | TGI (OVCAR-8 ovarian) | TGI (SF-295 CNS) | TGI (786-0 renal) | TGI (TK-10 renal) | TGI (HL-60(TB) leukemia) | TGI (LOX IMVI melanoma) | TGI (SK-OV-3 ovarian) | TGI (UACC-62 melanoma) | TGI (HOP-62 NSCLC) | TGI (CCRF-CEM leukemia) | TGI (SF-539 CNS) | TGI (MDA-MB-231 breast) | TGI (IGROV1 ovarian) | TGI (MDA-MB-435)

O=C(c1ccccc1)n1c(-c2ccccc2)cs/c1=N\S(=O)(=O)c1ccc(N2N=C3c4ccccc4CC3C2c2cccs2)cc1 (configuration not stated)
inactive: GI50 (DU-145 prostate) 47 µM | GI50 (HS 578T breast) 17 µM | GI50 (PC-3 prostate) 39.2 µM | GI50 (KM12 colon) 38.3 µM | GI50 (SW-620 colon) 58.8 µM | GI50 (NCI-H226 lung) 30.1 µM | GI50 (EKVX NSCLC) 40.7 µM | GI50 (HCT-15 colon) 61.4 µM | GI50 (COLO 205 colon) 98.1 µM | GI50 (T-47D breast) > 100 µM | GI50 (UO-31 renal) 98.1 µM | GI50 (NCI/ADR-RES ovarian) > 100 µM | GI50 (A549 NSCLC) 39.5 µM | GI50 (M14 melanoma) 33 µM | GI50 (MCF7 breast) > 100 µM | GI50 (NCI-H460 lung) > 100 µM | GI50 (HCT-116 colon) 30.5 µM | GI50 (K-562 leukemia) 27.6 µM | GI50 (ACHN renal) 43.8 µM | GI50 (U251 CNS) 32 µM | GI50 (SNB-19 CNS) 59.3 µM | GI50 (OVCAR-5 ovarian) 34.3 µM | GI50 (HT29 colon) 73.7 µM | GI50 (HOP-92 NSCLC) > 100 µM | GI50 (SF-268 CNS) > 100 µM | GI50 (RXF 393 renal) 37.1 µM | GI50 (OVCAR-3 ovarian) 55.2 µM | GI50 (CAKI-1 renal) 38 µM | GI50 (SK-MEL-28 melanoma) > 100 µM | GI50 (OVCAR-4 ovarian) > 100 µM | GI50 (SNB-75 CNS) > 100 µM | GI50 (BT-549 breast) 67.9 µM | GI50 (NCI-H522 lung) 32.7 µM | GI50 (SN12C renal) 44.4 µM | GI50 (SK-MEL-2 melanoma) > 100 µM | GI50 (RPMI-8226 leukemia) 32.3 µM | GI50 (NCI-H23 lung) 13 µM | GI50 (SK-MEL-5 melanoma) 24.4 µM | GI50 (HCC-2998 colon) 14 µM | GI50 (UACC-257 melanoma) 45.7 µM | GI50 (OVCAR-8 ovarian) 42.9 µM | GI50 (SF-295 CNS) 37.1 µM | GI50 (786-0 renal) 21.8 µM | GI50 (TK-10 renal) 30.5 µM | GI50 (LOX IMVI melanoma) 30.7 µM | GI50 (SK-OV-3 ovarian) > 100 µM | GI50 (UACC-62 melanoma) 27.3 µM | GI50 (HOP-62 NSCLC) 23.7 µM | GI50 (CCRF-CEM leukemia) 41.3 µM | GI50 (SF-539 CNS) 58.6 µM | GI50 (MDA-MB-231 breast) 41.3 µM | GI50 (IGROV1 ovarian) > 100 µM | GI50 (MDA-MB-435) 31.1 µM
32.6 µM: TGI (HCC-2998 colon)
87.2 µM: TGI (UACC-62 melanoma)
96.7 µM: TGI (786-0 renal)
57.1 µM: TGI (HOP-62 NSCLC)
85.2 µM: TGI (NCI-H226 lung)
39.4 µM: TGI (NCI-H23 lung)
active: GI50 (MOLT-4 leukemia) 0.305 µM
21.2 µM: TGI (MOLT-4 leukemia)
70.7 µM: TGI (TK-10 renal)
> 100 µM: TGI (DU-145 prostate) | TGI (HS 578T breast) | TGI (PC-3 prostate) | TGI (KM12 colon) | TGI (SW-620 colon) | TGI (EKVX NSCLC) | TGI (HCT-15 colon) | TGI (COLO 205 colon) | TGI (T-47D breast) | TGI (UO-31 renal) | TGI (NCI/ADR-RES ovarian) | TGI (A549 NSCLC) | TGI (M14 melanoma) | TGI (MCF7 breast) | TGI (NCI-H460 lung) | TGI (HCT-116 colon) | TGI (K-562 leukemia) | TGI (ACHN renal) | TGI (U251 CNS) | TGI (SNB-19 CNS) | TGI (OVCAR-5 ovarian) | TGI (HT29 colon) | TGI (HOP-92 NSCLC) | TGI (SF-268 CNS) | TGI (RXF 393 renal) | TGI (OVCAR-3 ovarian) | TGI (CAKI-1 renal) | TGI (SK-MEL-28 melanoma) | TGI (OVCAR-4 ovarian) | TGI (SNB-75 CNS) | TGI (BT-549 breast) | TGI (NCI-H522 lung) | TGI (SN12C renal) | TGI (SK-MEL-2 melanoma) | TGI (RPMI-8226 leukemia) | TGI (SK-MEL-5 melanoma) | TGI (UACC-257 melanoma) | TGI (OVCAR-8 ovarian) | TGI (SF-295 CNS) | TGI (LOX IMVI melanoma) | TGI (SK-OV-3 ovarian) | TGI (CCRF-CEM leukemia) | TGI (SF-539 CNS) | TGI (MDA-MB-231 breast) | TGI (IGROV1 ovarian) | TGI (MDA-MB-435)
